{
  "source": "patent EP0215956A1",
  "about": "“COMPOSITION FOR TREATING SKIN DISEASE” (priority 1985, dated 1986)",
  "key": {"patients": {"system": "patients", "conditions": "human, in vivo, po", "source_text": "the six patients under therapy by oral administration of la-dihydroxyvitamin D3 and the one patient receiving orally administered la,25-dihydroxyvitamin D3 were subjected to the following analyses, tests and measurements at intervals of twice a month in the first two months of administration and once a month in the subsequent period: blood analysis for determining the number of erythrocytes, the number of platelets and the percentage of leucocytes; urine analysis for determining the levels of urinary protein, glucose, pH, acetone and urobilinogen and the presence of occult blood; testing liver functions by determining the levels of blood GOT, GPT and total bilirubin; testing kidney functions by determining the levels of blood creatinine and BUN; and the measurement of blood calcium and inorganic phosphate levels."}, "psoriasis vulgaris": {"system": "psoriasis vulgaris", "assay": "Peroral administration to patients with psoriasis vulgaris (case reports)", "format": "in vivo, human", "conditions": "for psoriasis vulgaris severity: 0.75 µg per day orally", "procedure": "In order to treat this disease, 0.75 µg of la-hydroxyvitamin D3 was orally administered per day.\nThis patient had been suffering from psoriasis vulgaris for one year, during which period they were under therapy involving external use of corticosteroid. […] Thereafter, the external use of corticosteroid was suspended and only la-hydroxyvitamin D3 was kept administered perorally.\nAfter suspending the external use of corticosteroid, peroral administration of la-hydroxyvitamin D3 in a daily dose of 1 µg was initiated.\nThis patient had been suffering from psoriasis vulgaris for 2 years."}, "[1]": {"assay": "Acute toxicity test (LD50), rats", "conditions": "rat, in vivo, 5-week-old SD-TCL rats, Litchfield-Wilcoxon method", "procedure": "(§1) Acute toxicity of la-hydroxyvitamin D3 was evaluated by its peroral and subcutaneous administration to mice and rats."}, "[2]": {"assay": "Acute toxicity test (LD50), mice", "conditions": "mouse, in vivo, 5-week-old ddY mice, Litchfield-Wilcoxon method", "procedure": "as §1"}, "[3]": {"conditions": "patient, daily dose of 1 µg perorally, two months, external corticosteroid suspended"}},
  "data": [
    {"molecule": "C=C1/C(=C\\C=C2/CCC[C@]3(C)[C@@H]([C@H](C)CCCC(C)(C)O)CC[C@@H]23)C[C@@H](O)C[C@@H]1O", "note": "[la,25-dihydroxyvitamin D3]", "values": [
      {"measurement": "abnormal subjective symptom or objective sign", "setting": "patients", "value": "Not a single patient under therapy had any abnormal subjective symptom or objective sign"},
      {"measurement": "change of blood, urine, liver function, kidney function, blood calcium and inorganic phosphate parameters from values prior to treatment", "setting": "patients", "value": "None of the parameters analyzed showed any abnormal change"},
      {"measurement": "dermal lesion condition", "setting": "psoriasis vulgaris; patient, daily dose of 0.5 µg perorally, three months, diminished rashes and flares", "value": "moderate improvement in the dermal lesion condition"}
    ]},
    {"molecule": "C=C1/C(=C\\C=C2/CCC[C@]3(C)[C@@H]([C@H](C)CCCC(C)C)CC[C@@H]23)C[C@@H](O)C[C@@H]1O", "note": "[la-hydroxyvitamin D3, 1α-hydroxyvitamin D3]", "values": [
      {"measurement": "abnormal subjective symptom or objective sign", "setting": "patients", "value": "Not a single patient under therapy had any abnormal subjective symptom or objective sign"},
      {"measurement": "change of blood, urine, liver function, kidney function, blood calcium and inorganic phosphate parameters from values prior to treatment", "setting": "patients", "value": "None of the parameters analyzed showed any abnormal change"},
      {"measurement": "dermal lesion condition", "setting": "psoriasis vulgaris; patient (psoriasis for 6 years), daily dose of 1 µg perorally, three months", "value": "moderate improvement in the dermal lesion condition"},
      {"measurement": "dermal lesion condition", "setting": "psoriasis vulgaris; patient (psoriasis for 25 years), daily dose of 1 µg perorally, three months", "value": "moderate improvement in the dermal lesion condition"},
      {"measurement": "psoriasis vulgaris severity", "setting": "psoriasis vulgaris; patient, a half month after the two months and a half", "value": "virtually disappeared"},
      {"measurement": "psoriasis vulgaris severity", "setting": "psoriasis vulgaris; patient, two months and a half after start", "value": "dramatically diminished in severity"},
      {"measurement": "dermal lesion condition", "setting": "psoriasis vulgaris; patient, 1.0 µg per day orally, four months later, with external corticosteroid, slight loss of dermal pigment remained", "value": "improved pronouncedly"},
      {"measurement": "dermal lesion condition", "setting": "psoriasis vulgaris; patient, 1.0 µg per day orally, two months after start, with external corticosteroid", "value": "a sign of improvement in the dermal lesion condition"},
      {"measurement": "dermal lesion condition", "setting": "psoriasis vulgaris; patient, daily dose of 1 µg orally, two months after start", "value": "diminished by a small degree"},
      {"measurement": "dermal lesion condition", "setting": "psoriasis vulgaris; patient, daily dose of 1 µg orally, two more months later", "value": "pronounced improvement in the condition"},
      {"measurement": "condition of the lesion elsewhere on the body", "setting": "psoriasis vulgaris; [3]", "value": "improved markedly"},
      {"measurement": "dermal lesion on the soles", "setting": "psoriasis vulgaris; [3]", "value": "disappeared"},
      {"measurement": "dermal lesion condition", "setting": "psoriasis vulgaris; patient, peroral only, external corticosteroid suspended, six months later", "value": "completely cured"},
      {"measurement": "maintenance of improvement", "setting": "psoriasis vulgaris; patient, subsequent peroral daily dose of 0.5 ug", "value": "improvement could be maintained"},
      {"measurement": "LD50", "setting": "[1]; po, Peroral, female", "value": 0.743, "unit": "mg/kg"},
      {"measurement": "LD50", "setting": "[1]; po, Peroral, male", "value": 0.62, "unit": "mg/kg"},
      {"measurement": "LD50", "setting": "[1]; sc, subcutaneous, female", "value": 0.04, "unit": "mg/kg"},
      {"measurement": "LD50", "setting": "[1]; sc, subcutaneous, male", "value": 0.056, "unit": "mg/kg"},
      {"measurement": "LD50", "setting": "[2]; po, Peroral, female", "value": 0.71, "unit": "mg/kg"},
      {"measurement": "LD50", "setting": "[2]; po, Peroral, male", "value": 0.68, "unit": "mg/kg"},
      {"measurement": "LD50", "setting": "[2]; sc, subcutaneous, female", "value": 0.058, "unit": "mg/kg"},
      {"measurement": "LD50", "setting": "[2]; sc, subcutaneous, male", "value": 0.055, "unit": "mg/kg"}
    ]}
  ]
}
